Measured values as given in patent US20190125715A1, “CDDO-Me AS A THERAPY FOR LUPUS” (priority 2014, published 2019).

What was measured:
B6.Sle1.Sle3 mice = test: Preventive experiment in B6.Sle1.Sle3 mice: spleen weight, splenic cellularity and lymphocyte subsets by flow cytometry; assay type: in vivo, mouse; design: Splenic B cells: B220+, AA4.1+ (mature) / Splenic B cells: Follicular B cells / Splenic B cells: Marginal zone B cells / Splenic B cells: B1a cells / Splenic B cells: B220+, AA4.1+ (immature) / Splenic B cells: T1 immature / Splenic B cells: T2 immature / Splenic B cells: T3 immature / Splenic T cells: CD4 T cells / Splenic T cells: CD8 T cells: unit not given here
Protocol: Flow cytometric analysis and antibodies: Splenocytes were depleted of red blood cells using a lysis buffer (containing 0.15M NH4Cl, 10 mM KHCO3, and 0.1 mM Na2EDTA, pH 7.2), and single-cell suspensions were prepared for flow cytometric analysis. Flow cytometric analysis was performed as described previously (17).
In vivo experiments: In the first preventive experiment, CDDO-Me was diluted in sesame oil. Two-month-old B6.Sle1.Sle3 mice (n=20) received CDDO-Me at a final dose of 3 mg/kg or vehicle alone (i.e., placebo), by oral gavage 3 times per week for a period of 2 months. In a confirmatory preventive study, 2-month-old MRL/lpr mice (n=8 per group) were orally administered CDDO-Me (3 mg/kg), sesame oil, water, or dexamethasone (1 mg/kg) 3 times a week for 2 months. Serum and 24-hour urine samples were obtained on days 0, 14, and 60. All serum samples were subjected to ELISA for autoantibodies, and urine samples were assayed for total protein as previously described (17,18). On day 60, when mice were killed, the cellular composition of the spleen and lymph nodes was determined by flow cytometry, and the kidneys were examined for pathology, as described below. In addition, the expression of various signaling molecules in the spleens and kidneys of the treated mice was assayed by Western blotting, as described above. In the treatment experiment, 7-month-old NZM2410 mice with proteinuria (n=4-7 per group) were treated with CDDO-Me (3 mg/kg) or placebo by oral gavage 5 times per week for a period of 2 months. Proteinuria, autoantibody production, spleen weight, and survival rates were assessed.
To address this, 2-month-old female B6.Sle1.Sle3 mice were treated for 60 days with CDDO-Me or placebo, and then spleen size and cellularity were assessed in both groups.

[1] = mouse, in vivo
Text: Since this was a relatively long-term study, and since CDDO-Me cripples multiple signaling axes, one concern can be potential side effects. After 60 days of drug administration (either in the preventive or treatment experiment), body weights of mice from both the CDDO-Me group and the placebo group were similar. […] In addition, liver function was monitored by assaying aspartate aminotransferase (AST); however, there were no significant changes in the CDDO-Me-treated group (AST activity 75.7±6.5 units/liter) compared to the placebo group (74.0±5.8 units/liter).

[2] = absolute cell number in spleen, 4-month-old mice, 60 days treatment, mean ± SEM, n=10

SMILES: COC(=O)[C@]12CCC(C)(C)C[C@H]1[C@H]1C(=O)C=C3[C@@]4(C)C=C(C#N)C(=O)C(C)(C)[C@@H]4CC[C@@]3(C)[C@]1(C)CC2 [CDDO-Me, methyl-2-cyano-3,12-dioxooleana-1,9-dien-28-oate]
- Total spleen cell count (B6.Sle1.Sle3 mice; 4-month-old B6.Sle1.Sle3 mice after 60 days CDDO-Me 3 mg/kg oral gavage 3 times per week, mean ± SEM, n=10): 89.1 ± 2.3 10^6
- percentage of CD8+ T cells among splenic T cells (B6.Sle1.Sle3 mice; 60 days treatment, mean±SEM, placebo 6.8±1.1%, P=0.023): 9.73±0.4%
- percentage of CD4+ T cells among splenic T cells (B6.Sle1.Sle3 mice; 60 days treatment, mean±SEM, placebo 15.1±1.2%, P=0.021): 12.1±0.35%
- B cell activation, surface CD86 expression (B6.Sle1.Sle3 mice; 60 days treatment, placebo 8.72±0.45, P<0.002): 6.48±0.42 mean fluorescence intensity units
- absolute number of total splenic CD4+ T cells (B6.Sle1.Sle3 mice; 60 days treatment, placebo 39.0±2.0 million, P<0.0001): 18.7±3.8 million
- Splenic B cells: B1a cells (B6.Sle1.Sle3 mice; [2]): 4.0 ± 0.3
- Splenic B cells: B220+, AA4.1+ (immature) (B6.Sle1.Sle3 mice; [2]): 10.4 ± 1.1
- Splenic B cells: B220+, AA4.1+ (mature) (B6.Sle1.Sle3 mice; [2]): 45.3 ± 3.2
- Splenic B cells: Follicular B cells (B6.Sle1.Sle3 mice; [2]): 30.9 ± 1.6
- Splenic B cells: Marginal zone B cells (B6.Sle1.Sle3 mice; [2]): 4.0 ± 0.2
- Splenic B cells: T1 immature (B6.Sle1.Sle3 mice; [2]): 1.0 ± 0.1
- Splenic B cells: T2 immature (B6.Sle1.Sle3 mice; [2]): 3.1 ± 0.2
- Splenic B cells: T3 immature (B6.Sle1.Sle3 mice; [2]): 4.0 ± 0.2
- Splenic T cells: CD4 T cells (B6.Sle1.Sle3 mice; [2]): 18.7 ± 3.8
- Splenic T cells: CD8 T cells (B6.Sle1.Sle3 mice; [2]): 8.6 ± 2.4
- Splenic T cells: CD69+/CD4 T cells (B6.Sle1.Sle3 mice; [2]): 5.1 ± 0.6
- Splenic T cells: CD69+/CD8 T cells (B6.Sle1.Sle3 mice; [2]): 0.6 ± 0.1
- decrease of overall spleen weights compared to the placebo-treated group (B6.Sle1.Sle3 mice; female B6.Sle1.Sle3 mice treated for 60 days): ~50%
- AST activity (liver function) [1]: 75.7±6.5 units/liter
- all blood cell counts (WBC, RBC, hemoglobin, hematocrit, MCV, MCH, MCHC, RDW, MPV, neutrophils, lymphocytes, eosinophils) versus placebo group [1]: remained similar
- platelet counts versus placebo group [1]: comparable
